Laboratory results taken from BindingDB's records for patent WO2023288264 (Blueprint Medicines, 2023).
Where “and” joins values, the source holds several entries; their conditions need not be identical. Identical values can stand only once.

Target: Mitogen-activated protein kinase kinase kinase kinase 1 (Homo sapiens, UniProt Q92918)
Test: MAP4K1 Biochemical Enzymatic Activity
Method: Inhibitors were dissolved in 100% DMSO at a stock concentration of 10 mM. A 100X, 10-point, 4-fold serial dilution of each inhibitor was created in 100% DMSO either manually or on a Hamilton STAR liquid handler, starting at a relevant concentration, usually 1 mM. A volume of 0.130 µL of each concentration was transferred to the relevant wells of a 384-well plate (Greiner 781 201) in duplicate using a TTPLabtech Mosquito nano-litre dispenser. Using a Multidrop Combi, the remaining constituents of the kinase reaction were added to the 130 nL of dosed compound as follows (see table below for final reaction details):Enzyme activity assays at the APPKM for ATP or 1 mM ATP: In each well of a 384-well plate, 0.1 - 15 nM of untreated enzyme was incubated in a total of 13 µL of buffer (100 mM HEPES pH 7.5, 0.015% Brij 35, 10 mM MgCl2, 1mM DTT) with 1.5 µM fluorescent peptide and 20 - 1000 µM ATP, at 25 °C, for 60 - 180 minutes in the presence or absence of a dosed concentration series of compound (1% DMSO final concentration). The kinase reactions were stopped by the addition of 70 µl of Stop buffer (100 mM HEPES pH 7.5, 0.015% Brij 35, 35 mM EDTA and 0.2% of Coating Reagent 3 (Caliper Lifesciences)). The plates were read on a Caliper EZReader 2 as described above.

Chain of Mitogen-activated protein kinase kinase kinase kinase 1 (Q92918 whole entry): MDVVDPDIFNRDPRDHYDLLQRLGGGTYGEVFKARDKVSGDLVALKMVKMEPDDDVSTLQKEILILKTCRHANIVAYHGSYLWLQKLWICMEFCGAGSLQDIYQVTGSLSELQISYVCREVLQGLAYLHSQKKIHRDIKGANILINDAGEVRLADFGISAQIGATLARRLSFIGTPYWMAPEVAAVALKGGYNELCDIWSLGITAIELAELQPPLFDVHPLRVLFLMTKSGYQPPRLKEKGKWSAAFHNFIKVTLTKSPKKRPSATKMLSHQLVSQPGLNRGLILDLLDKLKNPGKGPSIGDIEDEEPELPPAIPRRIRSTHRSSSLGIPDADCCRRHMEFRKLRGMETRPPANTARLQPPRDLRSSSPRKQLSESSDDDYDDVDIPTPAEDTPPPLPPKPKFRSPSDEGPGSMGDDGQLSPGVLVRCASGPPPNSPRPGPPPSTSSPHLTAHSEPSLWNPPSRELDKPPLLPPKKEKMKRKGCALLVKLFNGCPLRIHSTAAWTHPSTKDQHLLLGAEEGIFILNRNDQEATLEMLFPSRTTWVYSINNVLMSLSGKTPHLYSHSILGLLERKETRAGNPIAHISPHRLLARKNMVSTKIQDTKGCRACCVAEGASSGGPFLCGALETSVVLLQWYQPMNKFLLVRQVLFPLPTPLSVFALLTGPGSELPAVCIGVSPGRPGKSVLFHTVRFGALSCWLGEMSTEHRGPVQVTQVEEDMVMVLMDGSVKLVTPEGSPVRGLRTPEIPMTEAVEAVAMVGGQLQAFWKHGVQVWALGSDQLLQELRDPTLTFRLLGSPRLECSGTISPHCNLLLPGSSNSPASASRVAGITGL

SMILES	IC50
COc1ncc([C@@H](C)O)c2cc(Nc3ccnc(C(C)(C)F)n3)ncc12 [WO2023288264, Compound 1]	121 nM
COc1ncc([C@H](C)O)c2cc(Nc3ccnc(C(C)(C)F)n3)ncc12 [WO2023288264, Compound 2]	64 nM
COc1ncc(C(C)(C)O)c2cc(Nc3ccnc(N4CCCC4)n3)ncc12 [WO2023288264, Compound 9]	1.63 nM
COc1ncc([C@@](C)(O)C(F)F)c2cc(Nc3ccnc(C(C)(C)F)n3)ncc12 [WO2023288264, Compound 11]	15 nM
COc1ncc([C@](C)(O)C(F)F)c2cc(Nc3ccnc(C(C)(C)F)n3)ncc12 [WO2023288264, Compound 12]	47 nM
CC[C@@H](O)c1cnc(OC)c2cnc(Nc3ccc4c(n3)[C@@H](C)C(C)(C)OC4=O)cc12 [WO2023288264, Compound 14]	0.25 nM and 0.61 nM
CC[C@H](O)c1cnc(OC)c2cnc(Nc3ccc4c(n3)[C@@H](C)C(C)(C)OC4=O)cc12 [WO2023288264, Compound 15]	3.06 nM
CC[C@@](C)(O)c1cnc(OC)c2cnc(Nc3ccc4c(n3)[C@@H](C)C(C)(C)OC4=O)cc12 [WO2023288264, Compound 17]	0.3 nM
COC[C@@H](O)c1cnc(OC)c2cnc(Nc3ccc4c(n3)[C@@H](C)C(C)(C)OC4=O)cc12 [WO2023288264, Compound 18]	1.65 nM
COC[C@H](O)c1cnc(OC)c2cnc(Nc3ccc4c(n3)[C@@H](C)C(C)(C)OC4=O)cc12 [WO2023288264, Compound 19]	14 nM
CC[C@](C)(O)c1cnc(NC2CC2)c2cnc(Nc3ccc4c(n3)[C@@H](C)[C@H](C)OC4=O)cc12 [WO2023288264, Compound 20]	3.48 nM
CC[C@@](C)(O)c1cnc(NC2CC2)c2cnc(Nc3ccc4c(n3)[C@@H](C)[C@H](C)OC4=O)cc12 [WO2023288264, Compound 21]	1.98 nM
CCOc1ncc([C@](C)(O)CC)c2cc(Nc3ccc4c(n3)[C@@H](C)C(C)(C)OC4=O)ncc12 [WO2023288264, Compound 23]	3.34 nM
CCOc1ncc([C@@](C)(O)CC)c2cc(Nc3ccc4c(n3)[C@@H](C)C(C)(C)OC4=O)ncc12 [WO2023288264, Compound 24]	0.39 nM
C[C@@H]1OC(=O)c2ccc(Nc3cc4c([C@@](C)(O)C5CC5)cnc(OC5CC5)c4cn3)nc2[C@H]1C [WO2023288264, Compound 25]	27 nM
